Test results reported in US20230084927A1, “GLUCOSE UPTAKE INHIBITORS AND USES THEREOF” (METABOMED LTD., priority 2019, published 2023).
Read-outs that look alike come from different tables or passages of the source.

What was measured:
[1] = system: SDH-KO-HRAS cells (SDHB-deficient); assay: Cellular / differential toxicity assay (CellTiter-Glo, 3 days); type: cell-based, murine; settings: for EC50: toxicity, SDH-KO cells, 3 days, CellTiter-Glo, read-out: EC50 (uM) SDH-KO-HTAS-C17
Procedure: (§1) Identification of compounds that target specifically SDH-deficient cells was done by screening a library of small-molecule by using a differential toxicity screen with SDHB-proficient vs. SDHB-deficient cells (the […] cells were described in Cardaci 2015).
(§2) Cells Used for the Differential Assays: SDH-WT; SDH-KO-HRAS
(§3) Cell Culture Conditions: • Medium: DMEM-F12 medium+1 mM Glutamine+3% FBS • Plates: 96 well plate—Black, clear flat bottom • Incubation time: 3 days • Compound concentration: 10 point dilution starting from 10 uM to 0.0065 uM or a lower range when needed. • Viability assay at the end of incubation: Celltiter-Glo (CTG) from Promega.
(§4) Protocol: • Day 1: Plate cells in 96 well plate together with the appropriate concentration of compound.
(§5) Incubate for 3 days at 37° C. in 5% CO2 tissue culture incubator. • Day 4: Check viability of cells by adding CTG reagent and read luminescence in plate reader
(§6) SDH-WT and SDH-KO cells were grown in DMEM F12 supplemented with 1 mM Glutamine+3% FBS were treated with different concentrations of the indicated compounds in FIG. 11. Cell viability was determined 72 hours later by CellTiter Glue reagent (Promega), the luminescence was measured with ClarioStar reader (BMG) and the EC50s were calculated by Prism.
as §6, with “compounds.” for “compounds in FIG. 11.”
(§7) The cells were grown in DMEM F12 supplemented with 1 mM Glutamine+3% FBS were treated with different concentrations of the indicated compounds. Cell viability was determined 72 hours later by CellTiter Glue reagent (Promega), the luminescence was measured with ClarioStar reader (BMG) and the EC50s were calculated by Prism. Murine SDHB-WT/KO, HRAS transformed isogenic pair (FIG. 12A); UOK269, Human Tumor-derived SDHB-deficient RCC in their WT counterpart with re-expression of SDHB (FIG. 12B); and ACHN, RCC cells, and their SDHB-KO (SDHB CRISPRed out) isogenic cells (FIG. 12C).

[2] = system: SDH-WT cells; assay: as above; type: cell-based, murine; settings: toxicity, SDH-WT cells, 3 days, CellTiter-Glo, read-out: EC50 (uM) SDH-WT
Procedure: as §1, §2, §3, §4, §5, §6
as §6, with “compounds.” for “compounds in FIG. 11.”
as §7

SMILES | EC50 ([1]; Mus musculus, 72 h) [µM] | differential toxicity, SDH-KO cells compared to SDH-WT cells ([1]; viability EC50s, 72 hours, Example 6) | EC50 ([2]; Mus musculus, 72 h) [µM] | EC50 [2] [µM] | EC50 [1] [µM]
COCCOCCOCCOCCN(C)Cc1c2c(nc3sc4c(NCCc5ccc6[nH]cnc6c5)ncnc4c13)CC(C)(C)OC2 [Compound 330, N-(2-(1H-Benzo[d]imidazol-5-yl)ethyl)-8,8-dimethyl-11-(2-methyl-5,8,11,14-tetraoxa-2-azapentadecyl)-7,10-dihydro-8H-pyrano[3″,4″:5′,6′]pyrido[3′,2′:4,5]thieno[3,2-d]pyrimidin-4-amine] | < 1 | > 56 | 3 to 10 | – | –
CC1(C)Cc2nc3sc4c(NCCc5ccc(N)c([N+](=O)[O-])c5)ncnc4c3cc2CO1 [Compound 205] | < 1 | – | 3 to 10 | – | –
CC1(C)Cc2nc3sc4c(NCCc5ccc(N)cc5)ncnc4c3cc2CO1 [Compound 151] | < 1 | – | 3 to 10 | – | –
Cc1nc(NC2CCCCC2)c2sc3nc4c(cc3c2n1)COC(C)(C)C4 [Compound 264] | 3 to 10 | – | > 10 | – | –
COc1cccc(OC)c1CCNc1ncnc2c1sc1nc3c(cc12)COC(C)(C)C3 [Compound 162] | < 1 | – | < 1 | – | –
Cc1nc(NC(C)CCc2ccccc2)c2sc3nc4c(cc3c2n1)COC(C)(C)C4 (stereo not drawn) [Compound 252] | > 10 | – | – | > 10 | –
CC1(C)Cc2nc3sc4c(NCCc5ccc6[nH]cnc6c5)nc(-c5ccccc5)nc4c3cc2CO1 [Compound 315] | 1 to 3 | – | 3 to 10 | – | –
COc1ccc(CCN(C)c2ncnc3c2sc2nc4c(cc23)COC(C)(C)C4)cc1F [Compound 100] | 3 to 10 | – | > 10 | – | –
CN1CCC(OCc2c3c(nc4sc5c(NCCc6ccc7[nH]cnc7c6)ncnc5c24)CC(C)(C)OC3)CC1 [Compound 328, N-(2-(1H-Benzo[d]imidazol-5-yl)ethyl)-8,8-dimethyl-11-(((1-methylpiperidin-4-yl)oxy)methyl)-7,10-dihydro-8H-pyrano[3″,4″:5′,6′]pyrido[3′,2′:4,5]thieno[3,2-d]pyrimidin-4-amine] | 3 to 10 | – | 3 to 10 | – | –
CC1(C)Cc2nc3sc4c(NCCc5ccc6[nH]cnc6c5)ncnc4c3c(CO)c2CO1 [Compound 306] | > 10 | – | > 10 | – | –
C=CCNc1ncnc2c1sc1nc3c(cc12)COC(C)(C)C3 [Compound 221] | – | – | > 10 | – | > 10
CC1(C)Cc2nc3sc4c(N5CCNCC5)ncnc4c3cc2CO1 [Compound 136] | > 10 | – | > 10 | – | –
CC1(C)Cc2nc3sc4c(NCCc5ccc(NC(=O)C(F)(F)F)c([N+](=O)[O-])c5)ncnc4c3cc2CO1 [Compound 182] | 1 to 3 | – | 3 to 10 | – | –
CCCOc1ccc(CCNc2ncnc3c2sc2nc4c(cc23)COC(C)(C)C4)cc1OC [Compound 115] | 3 to 10 | – | 1 to 3 | – | –
COCCOCCOCCOCc1c2c(nc3sc4c(NCCc5ccc6[nH]cnc6c5)ncnc4c13)CC(C)(C)OC2 [Compound 305] | < 1 | – | > 10 | – | –
CC1(C)Cc2nc3sc4c(NCCc5ccc6[nH]cnc6c5)ncnc4c3c(COC3CCCC3)c2CO1 [Compound 333] | < 1 | – | 1 to 3 | – | –
CN(Cc1ccccc1)c1ncnc2c1sc1nc3c(cc12)COC(C)(C)C3 [Compound 292] | > 10 | – | > 10 | – | –
COc1ccc(Nc2ncnc3c2sc2nc4c(cc23)COC(C)(C)C4)cc1OC [Compound 132] | > 10 | – | > 10 | – | –
Cc1nc(NCC2CCCO2)c2sc3nc4c(cc3c2n1)COC(C)(C)C4 (stereo not drawn) [Compound 231] | > 10 | – | > 10 | – | –
CC1(C)Cc2nc3sc4c(NCCc5ccc(O)c([N+](=O)[O-])c5)ncnc4c3cc2CO1 [Compound 174] | 3 to 10 | – | < 1 | – | –
CCC(CO)Nc1ncnc2c1sc1nc3c(cc12)COC(C)(C)C3 (stereo not drawn) [Compound 291] | > 10 | – | > 10 | – | –
Cc1nc(N2CCOCC2)c2sc3nc4c(cc3c2n1)COC(C)(C)C4 [Compound 223] | > 10 | – | > 10 | – | –
Cn1cnc2cc(CCNc3ncnc4c3sc3nc5c(cc34)COC(C)(C)C5)ccc21 [Compound 173] | < 1 | – | 3 to 10 | – | –
CC1(C)Cc2nc3sc4c(NCCc5ccc(OS(C)(=O)=O)cc5)ncnc4c3cc2CO1 [Compound 157] | > 10 | – | > 10 | – | –
CC1CCCCN1c1ncnc2c1sc1nc3c(cc12)COC(C)(C)C3 (stereo not drawn) [Compound 282] | > 10 | – | > 10 | – | –

SMILES | EC50 ([1]; Mus musculus, 72 h) [µM] | differential toxicity, SDH-KO cells compared to SDH-WT cells ([1]; viability EC50s, 72 hours, Example 6) | EC50 ([2]; Mus musculus, 72 h) [µM] | EC50 [2] [µM] | EC50 [1] [µM]
CCN(CC)CCNc1nc(C)nc2c1sc1nc3c(cc12)COC(C)(C)C3 [Compound 234] | > 10 | – | > 10 | – | –
CC1(C)Cc2nc3sc4c(NCCc5ccc6[nH]cnc6c5)ncnc4c3c(COC3CCOCC3)c2CO1 [Compound 324, N-(2-(1H-Benzo[d]imidazol-5-yl)ethyl)-8,8-dimethyl-11-(((tetrahydro-2H-pyran-4-yl)oxy)methyl)-7,10-dihydro-8H-pyrano[3″,4″:5′,6′]pyrido[3′,2′:4,5]thieno[3,2-d]pyrimidin-4-amine] | < 1 | – | < 1 | – | –
CC1(C)Cc2nc3sc4c(NCCc5ccc(NC(N)=O)cc5)ncnc4c3cc2CO1 [Compound 141] | < 1 | – | > 10 | – | –
CC1(C)Cc2nc3sc4c(NCCc5ccc6occc6c5)ncnc4c3cc2CO1 [Compound 202] | < 1 | – | 3 to 10 | – | –
CN(C)Cc1c2c(nc3sc4c(NCCc5ccc6[nH]cnc6c5)ncnc4c13)CC(C)(C)OC2 [Compound 334] | < 1 | – | 3 to 10 | – | –
COc1ccc(CCNc2ncnc3c2sc2nc4c(cc23)CCCC4)cc1F [Compound 109, N-(3-Fluoro-4-methoxyphenethyl)-7,8,9,10-tetrahydropyrimido[4′,5′:4,5]-thieno[2,3-b]quinolin-4-amine] | > 10 | – | > 10 | – | –
CC(CNc1ncnc2c1sc1nc3c(cc12)COC(C)(C)C3)c1ccc2c(c1)ncn2C (stereo not drawn) [Compound 172] | 3 to 10 | – | 3 to 10 | – | –
COc1nc2cc(CCNc3ncnc4c3sc3nc5c(cc34)COC(C)(C)C5)ccc2[nH]1 [Compound 195] | < 1 | – | < 1 | – | –
CCCCCNc1nc(C)nc2c1sc1nc3c(cc12)COC(C)(C)C3 [Compound 262] | > 10 | – | > 10 | – | –
CC1(C)Cc2nc3sc4c(NCCc5cccnc5)ncnc4c3cc2CO1 [Compound 124] | > 10 | – | > 10 | – | –
Cc1nc(N2CCCC2)c2sc3nc4c(cc3c2n1)COC(C)(C)C4 [Compound 268] | > 10 | – | > 10 | – | –
COc1ccc(CCNc2nc(C)nc3c2sc2nc4c(cc23)COC(C)(C)C4)cc1OC [Compound 273] | 3 to 10 | – | > 10 | – | –
CC1(C)Cc2nc3sc4c(N(CCO)CCO)ncnc4c3cc2CO1 [Compound 275] | > 10 | – | > 10 | – | –
CC1(C)Cc2nc3sc4c(NCCc5ccc6[nH]cnc6c5)ncnc4c3c(C(=O)OCCCCCCCCCCCC(=O)O)c2CO1 [Compound 212] | 3 to 10 | – | 3 to 10 | – | –
CCCCN(CC)c1ncnc2c1sc1nc3c(cc12)COC(C)(C)C3 [Compound 256] | 3 to 10 | – | 3 to 10 | – | –
CC1(C)Cc2nc3sc4c(NCCc5ccc(NS(C)(=O)=O)cc5)ncnc4c3cc2CO1 [Compound 152] | 3 to 10 | – | 3 to 10 | – | –
CC1(C)Cc2nc3sc4c(NN)ncnc4c3cc2CO1 [Compound 295] | > 10 | – | > 10 | – | –
COC(=O)c1ccc(CCNc2ncnc3c2sc2nc4c(cc23)COC(C)(C)C4)cc1 [Compound 130] | > 10 | – | > 10 | – | –
COc1cccc(CCNc2ncnc3c2sc2nc4c(cc23)COC(C)(C)C4)c1 [Compound 117] | 3 to 10 | – | > 10 | – | –
Cc1nc(NCc2ccccc2)c2sc3nc4c(cc3c2n1)COC(C)(C)C4 [Compound 254] | > 10 | – | > 10 | – | –
Cc1nc(NC(C)Cc2ccccc2)c2sc3nc4c(cc3c2n1)COC(C)(C)C4 (stereo not drawn) [Compound 266] | > 10 | – | 3 to 10 | – | –
CCCCN(CC)c1nc(C)nc2c1sc1nc3c(cc12)COC(C)(C)C3 [Compound 269] | > 10 | – | > 10 | – | –
Cc1nc(NCc2ccc(OC(C)C)cc2)c2sc3nc4c(cc3c2n1)COC(C)(C)C4 [Compound 235] | > 10 | – | > 10 | – | –
CC(C)Nc1ncnc2c1sc1nc3c(cc12)COC(C)(C)C3 [Compound 134] | > 10 | – | > 10 | – | –
